Reference: ChEMBL document CHEMBL1201862, “PubChem BioAssay data set” (2004)
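Compound exposure: 48 hours, 5 concentrations, 96-well plates. GI50 marks 50% less growth.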 Active and inactive are the calls of the source. No stated cut-off is given here; in the data, active = GI50 up to about 1.1 µM and inactive = higher. Peptide text beside a SMILES is read from it. * marks the point of attachment. X27 = Clc1c(Cl)c(Cl)c(O*)c(Cl)c1Cl; Boc = CC(C)(C)OC(=O)*; OBn = c1ccc(CO*)cc1; Bn = c1ccc(C*)cc1

Columns and labels:
Experiment in all cases: NCI-60 cell line screen, 48 h
[1] = tested on: HCT-15
[2] = tested on: SK-MEL-5
[3] = tested on: HCT-116
[4] = tested on: HOP-92
[5] = tested on: HOP-62
[6] = tested on: COLO 205
[7] = tested on: DU-145
[8] = tested on: U-251
[9] = tested on: SF-539
[10] = tested on: 786-0
[11] = tested on: SW-620
[12] = tested on: NCI/ADR-RES
[13] = tested on: KM12
[14] = tested on: SF-295
[15] = tested on: Hs-578T
[16] = tested on: UACC-62
[17] = tested on: K562
[18] = tested on: HL-60
[19] = tested on: HCC 2998

NC(=O)NCCSC1CCCCC1O (configuration not stated)
GI50 [1]: > 100 µM | GI50 [2]: > 100 µM (inactive) | GI50 [3]: > 100 µM (inactive) | GI50 [4]: > 100 µM (inactive) | GI50 [5]: > 100 µM (inactive) | GI50 [6]: > 100 µM (inactive) | GI50 [7]: > 100 µM (inactive) | GI50 [8]: > 100 µM (inactive) | GI50 [9]: > 100 µM (inactive) | GI50 [10]: > 100 µM (inactive) | GI50 [11]: > 100 µM (inactive) | GI50 [12]: > 100 µM (inactive) | GI50 [13]: > 100 µM (inactive) | GI50 [14]: > 100 µM (inactive) | GI50 [15]: > 100 µM (inactive) | GI50 [16]: > 100 µM (inactive) | GI50 [17]: > 100 µM (inactive)

C=C[C@]1(O[Si](C)(C)C)C[C@@]2(C(=O)OCC)C(O)C(=O)N3CCc4cc(OC)c(OC)cc4[C@]312 (some centres not stated)
GI50 [1]: > 100 µM | GI50 [2]: 44.7 µM (inactive) | GI50 [3]: > 100 µM (inactive) | GI50 [4]: 24.9 µM (inactive) | GI50 [5]: > 100 µM (inactive) | GI50 [6]: > 100 µM (inactive) | GI50 [7]: > 100 µM (inactive) | GI50 [8]: > 100 µM (inactive) | GI50 [9]: > 100 µM (inactive) | GI50 [10]: > 100 µM (inactive) | GI50 [11]: > 100 µM (inactive) | GI50 [12]: > 100 µM (inactive) | GI50 [13]: > 100 µM (inactive) | GI50 [14]: > 100 µM (inactive) | GI50 [15]: 31.3 µM (inactive) | GI50 [16]: 21.4 µM (inactive) | GI50 [17]: > 100 µM (inactive)

CCCCCCc1cc2cc(C(=O)Nc3ccccc3F)c(=N)oc2cc1O
GI50 [1]: 3.93 µM | GI50 [2]: 3.19 µM (inactive) | GI50 [3]: 5.7 µM (inactive) | GI50 [18]: 6.24 µM (inactive) | GI50 [5]: 14.3 µM (inactive) | GI50 [6]: 19.3 µM (inactive) | GI50 [7]: 9.31 µM (inactive) | GI50 [8]: 4.81 µM (inactive) | GI50 [9]: 12.6 µM (inactive) | GI50 [10]: 11.9 µM (inactive) | GI50 [11]: 12.6 µM (inactive) | GI50 [19]: 18.7 µM (inactive) | GI50 [12]: 2.64 µM (inactive) | GI50 [13]: 4.01 µM (inactive) | GI50 [14]: 12.1 µM (inactive) | GI50 [15]: 11.4 µM (inactive) | GI50 [16]: 6.55 µM (inactive) | GI50 [17]: 3.7 µM (inactive)

CCN(CC)CCNC(=O)c1cc2cc(NC(=O)c3cc4cc(NC(=O)c5cc6cc([N+](=O)[O-])ccc6[nH]5)ccc4[nH]3)ccc2[nH]1
GI50 [1]: > 100 µM | GI50 [2]: > 100 µM (inactive) | GI50 [4]: > 100 µM (inactive) | GI50 [5]: > 100 µM (inactive) | GI50 [6]: > 100 µM (inactive) | GI50 [7]: > 100 µM (inactive) | GI50 [8]: > 100 µM (inactive) | GI50 [10]: > 100 µM (inactive) | GI50 [11]: > 100 µM (inactive) | GI50 [19]: > 100 µM (inactive) | GI50 [12]: > 100 µM (inactive) | GI50 [13]: > 100 µM (inactive) | GI50 [14]: > 100 µM (inactive) | GI50 [15]: > 100 µM (inactive) | GI50 [16]: > 100 µM (inactive) | GI50 [17]: > 100 µM (inactive)

O=c1cc(CBr)c2ccc(O)cc2o1
GI50 [1]: 71.4 µM | GI50 [2]: 45.9 µM (inactive) | GI50 [3]: > 100 µM (inactive) | GI50 [18]: 48.3 µM (inactive) | GI50 [5]: 17 µM (inactive) | GI50 [6]: > 100 µM (inactive) | GI50 [7]: 92 µM (inactive) | GI50 [8]: 53.3 µM (inactive) | GI50 [9]: > 100 µM (inactive) | GI50 [10]: > 100 µM (inactive) | GI50 [11]: > 100 µM (inactive) | GI50 [19]: 76.6 µM (inactive) | GI50 [12]: 87.9 µM (inactive) | GI50 [13]: 54.1 µM (inactive) | GI50 [14]: 45.7 µM (inactive) | GI50 [15]: > 100 µM (inactive) | GI50 [16]: 55.3 µM (inactive) | GI50 [17]: 69.8 µM (inactive)

O=c1onc2c3ccccc3ncn12
GI50 [1]: > 100 µM | GI50 [2]: > 100 µM (inactive) | GI50 [3]: > 100 µM (inactive) | GI50 [4]: > 100 µM (inactive) | GI50 [5]: > 100 µM (inactive) | GI50 [6]: > 100 µM (inactive) | GI50 [7]: > 100 µM (inactive) | GI50 [8]: > 100 µM (inactive) | GI50 [9]: > 100 µM (inactive) | GI50 [10]: > 100 µM (inactive) | GI50 [11]: > 100 µM (inactive) | GI50 [19]: > 100 µM (inactive) | GI50 [12]: > 100 µM (inactive) | GI50 [13]: > 100 µM (inactive) | GI50 [14]: > 100 µM (inactive) | GI50 [15]: > 100 µM (inactive) | GI50 [16]: > 100 µM (inactive) | GI50 [17]: > 100 µM (inactive)

CC(C)CC(NC(=O)C(CCC(=O)OCc1ccccc1)NC(=O)OC(C)(C)C)C(=O)NC(COCc1ccccc1)C(=O)NC(Cc1ccccc1)C(=O)Oc1c(Cl)c(Cl)c(Cl)c(Cl)c1Cl (configuration not stated) (Boc-E(OBn)LS(Bn)F-X27; configuration not given here)
GI50 [1]: 25.8 µM | GI50 [2]: 18.4 µM (inactive) | GI50 [3]: 16.6 µM (inactive) | GI50 [4]: 16.5 µM (inactive) | GI50 [6]: 26.2 µM (inactive) | GI50 [7]: 35.5 µM (inactive) | GI50 [8]: 18.5 µM (inactive) | GI50 [10]: 35.7 µM (inactive) | GI50 [11]: > 100 µM (inactive) | GI50 [12]: 27.4 µM (inactive) | GI50 [13]: 20.4 µM (inactive) | GI50 [14]: 25.5 µM (inactive) | GI50 [15]: 25.1 µM (inactive) | GI50 [16]: 20.7 µM (inactive)

NC(=O)c1csc(C2(O)COC(CO)C2O)n1 (configuration not stated)
GI50 [1]: > 100 µM | GI50 [2]: > 100 µM (inactive) | GI50 [3]: > 100 µM (inactive) | GI50 [4]: > 100 µM (inactive) | GI50 [5]: > 100 µM (inactive) | GI50 [6]: > 100 µM (inactive) | GI50 [7]: > 100 µM (inactive) | GI50 [8]: > 100 µM (inactive) | GI50 [9]: > 100 µM (inactive) | GI50 [10]: > 100 µM (inactive) | GI50 [11]: > 100 µM (inactive) | GI50 [19]: > 100 µM (inactive) | GI50 [12]: > 100 µM (inactive) | GI50 [13]: > 100 µM (inactive) | GI50 [14]: > 100 µM (inactive) | GI50 [15]: > 100 µM (inactive) | GI50 [16]: > 100 µM (inactive)

COc1ccc(C2OC(N)=C(C#N)C3=C2CCCC3C)cc1OC (configuration not stated)
GI50 [1]: > 100 µM | GI50 [2]: > 100 µM (inactive) | GI50 [3]: > 100 µM (inactive) | GI50 [18]: > 100 µM (inactive) | GI50 [6]: > 100 µM (inactive) | GI50 [7]: > 100 µM (inactive) | GI50 [8]: > 100 µM (inactive) | GI50 [9]: > 100 µM (inactive) | GI50 [10]: > 100 µM (inactive) | GI50 [11]: > 100 µM (inactive) | GI50 [12]: > 100 µM (inactive) | GI50 [13]: > 100 µM (inactive) | GI50 [14]: > 100 µM (inactive) | GI50 [15]: > 100 µM (inactive) | GI50 [16]: > 100 µM (inactive) | GI50 [17]: > 100 µM (inactive)

CC(O)(CCCCCl)c1nc2ccccc2s1 (configuration not stated)
GI50 [1]: > 100 µM | GI50 [2]: 51.4 µM (inactive) | GI50 [3]: 47 µM (inactive) | GI50 [18]: 60.4 µM (inactive) | GI50 [5]: > 100 µM (inactive) | GI50 [6]: > 100 µM (inactive) | GI50 [7]: > 100 µM (inactive) | GI50 [8]: 85.5 µM (inactive) | GI50 [9]: > 100 µM (inactive) | GI50 [10]: > 100 µM (inactive) | GI50 [11]: > 100 µM (inactive) | GI50 [12]: 98.2 µM (inactive) | GI50 [13]: > 100 µM (inactive) | GI50 [14]: > 100 µM (inactive) | GI50 [15]: > 100 µM (inactive) | GI50 [16]: > 100 µM (inactive) | GI50 [17]: 89.9 µM (inactive)

Nc1nc(-c2ccccc2/N=N/N2CCCC2)nc2ccccc12
GI50 [1]: 2.7 µM | GI50 [2]: 4.5 µM (inactive) | GI50 [3]: 1.02 µM (active) | GI50 [4]: 8 µM (inactive) | GI50 [5]: 1.73 µM (inactive) | GI50 [6]: 2.56 µM (inactive) | GI50 [7]: 4.93 µM (inactive) | GI50 [8]: 2.67 µM (inactive) | GI50 [9]: 2.39 µM (inactive) | GI50 [10]: 2.38 µM (inactive) | GI50 [11]: 1.74 µM (inactive) | GI50 [12]: 2.99 µM (inactive) | GI50 [13]: 2.13 µM (inactive) | GI50 [14]: 2.32 µM (inactive) | GI50 [15]: 3.39 µM (inactive) | GI50 [16]: 1.77 µM (inactive) | GI50 [17]: 3.05 µM (inactive)

C=C(CCOC)CCC1CCCCC(CN(C)C)C1=O (configuration not stated)
GI50 [1]: > 100 µM | GI50 [2]: > 100 µM (inactive) | GI50 [3]: > 100 µM (inactive) | GI50 [18]: > 100 µM (inactive) | GI50 [5]: > 100 µM (inactive) | GI50 [6]: > 100 µM (inactive) | GI50 [7]: > 100 µM (inactive) | GI50 [8]: > 100 µM (inactive) | GI50 [10]: > 100 µM (inactive) | GI50 [11]: > 100 µM (inactive) | GI50 [19]: > 100 µM (inactive) | GI50 [12]: > 100 µM (inactive) | GI50 [13]: > 100 µM (inactive) | GI50 [14]: > 100 µM (inactive) | GI50 [15]: > 100 µM (inactive) | GI50 [16]: > 100 µM (inactive) | GI50 [17]: > 100 µM (inactive)
